# Test results: ChEMBL document CHEMBL1201862, “PubChem BioAssay data set” (2004)
#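 48-hour exposure; five concentrations; linearly interpolated endpoints. Abbreviation: GI50, concentration required for 50% inhibition of growth.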 The source made the active and inactive calls. Rule as the data show it: active = GI50 up to about 1.1 µM and inactive = higher.
# Tests used:
# Test in all cases: inhibition of tumour cell growth, NCI panel, 48 h
# [1] = system: A549
# [2] = system: ACHN
# [3] = system: CAKI-1
# [4] = system: HCT-15
# [5] = system: LOX IMVI
# [6] = system: M14
# [7] = system: MDA-MB-231
# [8] = system: PC-3
# [9] = system: RPMI-8226
# [10] = system: RXF 393
# [11] = system: SF-295
# [12] = system: SK-MEL-2
# [13] = system: SNB-19
# [14] = system: SR
# [15] = system: T47D
# [16] = system: U-251
# [17] = system: UACC-257
# [18] = system: K562
# [19] = system: SK-MEL-5
# [20] = system: A498
Structure (SMILES),GI50 [1],GI50 [2],GI50 [3],GI50 [4],GI50 [5],GI50 [6],GI50 [7],GI50 [8],GI50 [9],GI50 [10],GI50 [11],GI50 [12],GI50 [13],GI50 [14],GI50 [15],GI50 [16],GI50 [17],GI50 [18],GI50 [19],GI50 [20]
COc1ccc(/C=C2\N=C(N3CCOCC3)NC2=O)cc1,> 100 µM (inactive),> 100 µM (inactive),> 100 µM (inactive),> 100 µM,> 100 µM (inactive),> 100 µM (inactive),> 100 µM (inactive),> 100 µM (inactive),> 100 µM (inactive),> 100 µM (inactive),> 100 µM (inactive),> 100 µM (inactive),> 100 µM (inactive),> 100 µM (inactive),> 100 µM (inactive),> 100 µM (inactive),> 100 µM (inactive),,,
COC(=O)Oc1nn(C(=O)OC)c(=O)c2ccccc12,> 100 µM (inactive),> 100 µM (inactive),> 100 µM (inactive),> 100 µM,> 100 µM (inactive),> 100 µM (inactive),95.3 µM (inactive),> 100 µM (inactive),> 100 µM (inactive),,> 100 µM (inactive),> 100 µM (inactive),> 100 µM (inactive),> 100 µM (inactive),74.5 µM (inactive),> 100 µM (inactive),> 100 µM (inactive),> 100 µM (inactive),> 100 µM (inactive),
CCOP(=O)(OCC)C(C)(C)OC(=O)NC#N,> 100 µM (inactive),> 100 µM (inactive),> 100 µM (inactive),> 100 µM,> 100 µM (inactive),> 100 µM (inactive),> 100 µM (inactive),> 100 µM (inactive),> 100 µM (inactive),> 100 µM (inactive),> 100 µM (inactive),> 100 µM (inactive),> 100 µM (inactive),> 100 µM (inactive),> 100 µM (inactive),> 100 µM (inactive),> 100 µM (inactive),> 100 µM (inactive),> 100 µM (inactive),
O=c1[nH]c(N/N=C\C(O)C(O)C(O)C(O)CO)nc2ccccc12 (stereo not given),> 100 µM (inactive),> 100 µM (inactive),> 100 µM (inactive),> 100 µM,> 100 µM (inactive),> 100 µM (inactive),> 100 µM (inactive),> 100 µM (inactive),> 100 µM (inactive),,> 100 µM (inactive),> 100 µM (inactive),> 100 µM (inactive),> 100 µM (inactive),> 100 µM (inactive),> 100 µM (inactive),> 100 µM (inactive),> 100 µM (inactive),> 100 µM (inactive),> 100 µM (inactive)
C=CCOc1ccc(C2(O)c3ccccc3C3=NCCCN32)cc1 (stereo not given),55.3 µM (inactive),41.6 µM (inactive),> 62.8 µM (inactive),> 62.2 µM,48.8 µM (inactive),18.1 µM (inactive),> 63 µM (inactive),33.5 µM (inactive),26.4 µM (inactive),,51.5 µM (inactive),20.3 µM (inactive),47.8 µM (inactive),25.2 µM (inactive),27.9 µM (inactive),43.2 µM (inactive),21.4 µM (inactive),32.4 µM (inactive),22.1 µM (inactive),> 100 µM (inactive)
C=C(C)[C@H]1C2=CC(C)=C(O2)[C@@H](O[C@@H]2c3oc(cc3C)[C@H](C(=C)C)[C@H]3C=C(CC[C@H]2C(=C)C)C(=O)O3)[C@H](C(=C)C)CCC2=C[C@H]1OC2=O,> 100 µM (inactive),> 100 µM (inactive),> 100 µM (inactive),> 100 µM,> 100 µM (inactive),> 100 µM (inactive),> 100 µM (inactive),> 100 µM (inactive),> 100 µM (inactive),,> 100 µM (inactive),> 100 µM (inactive),> 100 µM (inactive),> 100 µM (inactive),> 100 µM (inactive),> 100 µM (inactive),> 100 µM (inactive),> 100 µM (inactive),> 100 µM (inactive),> 100 µM (inactive)
CCOC(=O)CC(=O)C(=O)NN=C1NCCCN1,> 100 µM (inactive),> 100 µM (inactive),,> 100 µM,> 100 µM (inactive),> 100 µM (inactive),> 100 µM (inactive),> 100 µM (inactive),> 100 µM (inactive),> 100 µM (inactive),> 100 µM (inactive),> 100 µM (inactive),> 100 µM (inactive),> 100 µM (inactive),> 100 µM (inactive),> 100 µM (inactive),,> 100 µM (inactive),> 100 µM (inactive),
Cc1ccc(-c2n[nH]c(=O)n2N)cc1,> 100 µM (inactive),> 100 µM (inactive),> 100 µM (inactive),> 100 µM,> 100 µM (inactive),> 100 µM (inactive),> 100 µM (inactive),> 100 µM (inactive),> 100 µM (inactive),,> 100 µM (inactive),> 100 µM (inactive),> 100 µM (inactive),> 100 µM (inactive),> 100 µM (inactive),> 100 µM (inactive),> 100 µM (inactive),> 100 µM (inactive),> 100 µM (inactive),> 100 µM (inactive)
CN(/N=C/c1ccc(Cl)c(Cl)c1)C1=NCCN1,33.4 µM (inactive),31.9 µM (inactive),17.3 µM (inactive),30.8 µM,12.4 µM (inactive),16.5 µM (inactive),23 µM (inactive),11.9 µM (inactive),24.8 µM (inactive),,24.8 µM (inactive),18.5 µM (inactive),55.8 µM (inactive),31.2 µM (inactive),23 µM (inactive),23.2 µM (inactive),20.1 µM (inactive),12.1 µM (inactive),16.4 µM (inactive),12.1 µM (inactive)
COC(=O)C1(NC(=O)C(CC(=O)OCc2ccccc2)NC(=O)OCc2ccccc2)CCCCCC1 (stereo not given),32.8 µM (inactive),34 µM (inactive),20.8 µM (inactive),38.1 µM,24.8 µM (inactive),> 100 µM (inactive),32.4 µM (inactive),28.6 µM (inactive),3.93 µM (inactive),55 µM (inactive),34.4 µM (inactive),,51.8 µM (inactive),18.4 µM (inactive),30.8 µM (inactive),44.9 µM (inactive),,23.2 µM (inactive),15.4 µM (inactive),
COc1ccc(/N=C2\C(=N/c3ccc(OC)cc3)N(S(=O)(=O)c3ccccc3)C(=S)N2c2ccc(OC)cc2)cc1,> 100 µM (inactive),> 100 µM (inactive),> 100 µM (inactive),> 100 µM,,25.1 µM (inactive),27.2 µM (inactive),> 100 µM (inactive),> 100 µM (inactive),46.2 µM (inactive),> 100 µM (inactive),> 100 µM (inactive),> 100 µM (inactive),> 100 µM (inactive),> 100 µM (inactive),> 100 µM (inactive),,> 100 µM (inactive),86.5 µM (inactive),
